Measured values as given in ChEMBL document CHEMBL1671629, “Penetration of chlorhexidine into human skin” (Antimicrob Agents Chemother, 2008).

Key:
Assay type in all cases: ADME, tissue-based
Zone of skin [1] = test: Drug permeation in top 100 micrometer sections of human skin using Franz-cell skin model assessed as compound penetration per mg tissue exposed to 2% wt/vol of compound administered topically measured after 2 mins exposure by HPLC
Zone of skin [2] = test: Drug permeation in top 100 micrometer sections of human skin using Franz-cell skin model assessed as compound penetration per mg tissue exposed to 2% wt/vol of compound administered topically measured after 30 mins exposure by HPLC; details: 0.5 h
Zone of skin [3] = test: Drug permeation in deeper <300 micrometer sections of human skin using Franz-cell skin model assessed as compound penetration per mg tissue exposed to 2% wt/vol of compound administered topically measured after 2 mins exposure by HPLC
Zone of skin [4] = test: Drug permeation in deeper <300 micrometer sections of human skin using Franz-cell skin model assessed as compound penetration per mg tissue exposed to 2% wt/vol of compound administered topically measured after 30 mins exposure by HPLC; details: 0.5 h
Zone of skin [5] = test: Drug permeation in top 100 micrometer sections of human skin using Franz-cell skin model assessed as compound penetration per mg tissue exposed to 2% wt/vol of compound administered topically measured after 24 hrs exposure by HPLC
Zone of skin [6] = test: Drug permeation in deeper <300 micrometer sections of human skin using Franz-cell skin model assessed as compound penetration per mg tissue exposed to 2% wt/vol of compound administered topically measured after 24 hrs exposure by HPLC

tissue concentration (Zone of skin [1]): 0.157 µg/mg | tissue concentration (Zone of skin [2]): 0.077 µg/mg | Drug uptake (Zone of skin [3]): < 0.002 µg | Drug uptake (Zone of skin [4]): < 0.002 µg | tissue concentration (Zone of skin [5]): 7.88 µg/mg | Drug uptake (Zone of skin [6]): < 1 µg
SMILES: N=C(NCCCCCCNC(=N)NC(=N)Nc1ccc(Cl)cc1)NC(=N)Nc1ccc(Cl)cc1.O=C(O)[C@H](O)[C@@H](O)[C@H](O)[C@H](O)CO
